Measured values: patent US20210322509A1, “Methods for Reducing Perinatal Morbidity and / or Mortality” (CHU SAINTE-JUSTINE, priority 2016, published 2021)
Marks after values point to notes of the source that are not given here. Non-standard residues stand in square brackets, D forms with d. Residues, ends and D or L forms follow the SMILES beside them. ξ: configuration not given here. dThr(3ξ) = CC(O)[C@@H](N)C(=O)O

Assays:
[1] = tested on: pups from IL-1β-treated dams; experiment: Behavioral test (spontaneous open field activity); format: in vivo, mice; conditions: PT15
Description: Behavioral test (Spontaneous openfield activity). Each animal (PND15 and PND28) was gently placed in the center of the openfield, allowed to freely explore undisturbed for 10 min, after which the animal was removed, the arena cleaned with 70% ethanol and dried prior to testing the next animal. Locomotor activity was indexed as the total distance travelled (cm). The evaluator was blinded to the groups. All movements were monitored and quantified using Smart software.

[2] = tested on: pregnant C57Bl/6 mice given LPS; experiment: Perinatal outcomes after maternal LPS (gestation length, perinatal survival, birth weight); format: in vivo
Description: The timing of birth (FIG. 11A); the number of viable pups per litter at birth (FIG. 11B); the proportion of pups surviving to one week (FIG. 11C), and birth weight at 12-24 h (FIG. 11D) were recorded (all mean±SEM). The number of treated dams in each group is shown in parentheses (n=10 per group, with n=48-57 pups weighed per group at birth) and data were analysed by ANOVA and post-hoc Sidak t-test; *P<0.05.
Animal and treatments. […] Mice were monitored via video recording until the time of parturition. Gestation length and perinatal survival (number of live pups at birth and % pups surviving to one week) were recorded. Pups were weighed at 12-24 h after birth.

[3] = tested on: progeny of C57Bl/6 dams given LPS and/or compound 2; experiment: Offspring growth trajectory and body morphometry at 20 weeks after exposure in utero; format: in vivo, C57Bl/6 mice; conditions: for Adrenals L / Adrenals R / Biceps / Brain / Combined Muscle / Gastrocnemius / Heart / Kidneys L / Kidneys R / Lean body weight / Liver / Lungs / Muscle:fat ratio / Ovary L / Ovary R / Parametrial Fat / Peri-renal Fat / Quadriceps / Retroperitoneal Fat / Spleen / Thymus / Total Central Fat / Triceps / Uterus / Epididymal Fat / Epididymis (L + R) / Seminal Vesicle / Testes L / Testes R: mean ± SEM
Description: FIGS. 12A and 12B show the effect of exposure to compound 2 in utero on growth trajectory in offspring. Pregnant females were given either LPS or PBS control i.p. on gd 16.5, then compound 2 or PBS vehicle i.p. at 12 h intervals on gd 16.5, 17.0, 17.5 and 18.0. Growth trajectories of male (FIG. 12A) and female (FIG. 12B) progeny of mothers receiving LPS and/or compound 2 are shown as estimated marginal means±SEM, of n=20 male and n=20 female offspring in each group; *P<0.05). Data was analyzed by a Mixed Model Linear Repeated Measures ANOVA and post-hoc Sidak test.
Animal and treatments. To analyze effects of compound 2 on offspring development into adulthood, pups delivered in the experiment described in Example 5 were weighed at 21 days, when pups were weaned and housed in groups of 1-4 siblings according to sex. All progeny were weighed again at 4 weeks and then every 2 weeks until 20 weeks of age. At 20 weeks, progeny were killed by cervical dislocation, weighed and autopsied for full body composition analysis. The following tissues were excised and weighed individually; brain, heart, lungs (left and right), kidneys (left and right), liver, adrenal glands (left and right), thymus, spleen, testes (males, left and right), seminal vesicle (males), epididymis (males), ovaries (females, left and right), uterus (females), quadriceps (left and right), triceps (left and right), biceps (left and right), gastrocnemius muscle (left and right), retroperitoneal fat, peri-renal fat, epididymal fat (males, left and right) and parametrial fat (females). Weights of bilateral tissues and organs were combined for each mouse. Total muscle weight was calculated by summing the weights of quadriceps, triceps, and biceps and gastrocnemius muscles. Total fat weight was calculated by summing the weights of retroperitoneal fat, peri-renal fat and epididymal fat (for males) or parametrial fat (for females), and the muscle/fat ratio was determined. Total fat weight was subtracted from total body weight to calculate total lean weight.

[4] = LPS gd 16.5 + compound 2 1 mg/kg i.p. at 12 h intervals, 4 doses
[5] = 20 week old adult female progeny, LPS + compound 2 in utero
[6] = 20 week old adult female progeny, PBS + compound 2 in utero
[7] = 20 week old adult male progeny, LPS + compound 2 in utero
[8] = 20 week old adult male progeny, PBS + compound 2 in utero

## CC(C)C[C@@H](NC(=O)[C@@H](CCC(=O)O)NC(=O)[C@H](NC(=O)[C@H](NC(=O)[C@@H](Cc1ccc(O)cc1)NC(=O)[C@H](N)CCCNC(=N)N)C(C)O)C(C)C)C(=O)N[C@H](C)C(N)=O (stereo partly drawn) [compound 1] (H-[dR][dY][dThr(3ξ)][dV][dE][dL][dA]-NH2)
[1]
  behavior/locomotion activity (distance travelled, open field): normalization of the behavior/locomotion activity

## CC(C)C[C@@H](NC(=O)[C@@H](CCC(=O)O)NC(=O)[C@H](NC(=O)[C@H](NC(=O)[C@@H](Cc1ccc(O)cc1)NC(=O)[C@H](N)CCCNC(=N)N)C(C)O)C(C)C)C(=O)N[C@H](C)C(=O)O (stereo partly drawn) [compound 2] (H-[dR][dY][dThr(3ξ)][dV][dE][dL][dA]-OH)
[2]; [4]
  LPS-induced death in the first week of life: completely reversed
  LPS-induced perinatal loss (number of viable pups at birth): completely reversed
  LPS-induced prematurity (gestation length): completely reversed
[2]; compound 2 alone, in the absence of LPS
  perinatal outcomes: did not alter perinatal outcomes
[2]; compound 2 with or without LPS treatment
  pup weight at 12-24 h after birth: no significant effect
[3]; [5]
  Adrenals L: 4 ± 0 mg
  Adrenals R: 4 ± 0 mg
  Biceps: 48 ± 3 mg
  Brain: 408 ± 9 mg
  Combined Muscle: 673 ± 25 mg
  Gastrocnemius: 207 ± 8 mg
  Heart: 105 ± 4 mg
  Kidneys L: 120 ± 5 mg
  Kidneys R: 127 ± 6 mg
  Lean body weight: 19.44 g
  Liver: 955 ± 38 mg
  Lungs: 165 ± 10 mg
  Muscle:fat ratio: 1.23 ± 0.06
  Ovary L: 13 ± 2 mg
  Ovary R: 13 ± 1 mg
  Parametrial Fat: 180 ± 20 mg
  Peri-renal Fat: 66 ± 7 mg
  Quadriceps: 254 ± 13 mg
  Retroperitoneal Fat: 317 ± 18 mg
  Spleen: 86 ± 7 mg
  Thymus: 70 ± 5 mg
  Total Central Fat: 562 ± 41 mg
  Triceps: 165 ± 7 mg
  Uterus: 66 ± 8 mg
[3]; [6]
  Adrenals L: 4 ± 0 mg
  Adrenals R: 4 ± 0 mg
  Biceps: 51 ± 3 mg
  Brain: 406 ± 9 mg
  Combined Muscle: 690 ± 24 mg
  Gastrocnemius: 215 ± 8 mg
  Heart: 109 ± 3 mg
  Kidneys L: 112 ± 5 mg
  Kidneys R: 122 ± 6 mg
  Lean body weight: 19.85 g
  Liver: 945 ± 37 mg
  Lungs: 174 ± 11 mg
  Muscle:fat ratio: 1.18 ± 0.06
  Ovary L: 16 ± 2 mg
  Ovary R: 16 ± 1 mg
  Parametrial Fat: 192 ± 20 mg
  Peri-renal Fat: 71 ± 7 mg
  Quadriceps: 254 ± 12 mg
  Retroperitoneal Fat: 326 ± 18 mg
  Spleen: 93 ± 7 mg
  Thymus: 64 ± 5 mg
  Total Central Fat: 589 ± 40 mg
  Triceps: 170 ± 7 mg
  Uterus: 63 ± 7 mg
[3]; [7]
  Adrenals L: 4 ± 0 mg
  Adrenals R: 3 ± 1 mg
  Biceps: 58 ± 3 mg
  Brain: 413 ± 5 mg
  Combined Muscle: 848 ± 18 mg
  Epididymal Fat: 224 ± 16 mg
  Epididymis (L + R): 102 ± 3* mg
  Gastrocnemius: 260 ± 7 mg
  Heart: 128 ± 3 mg
  Kidneys L: 149 ± 5 mg
  Kidneys R: 159 ± 5 mg
  Lean body weight: 23.04 g
  Liver: 1097 ± 40 mg
  Lungs: 173 ± 4 mg
  Muscle:fat ratio: 1.39
  Peri-renal Fat: 65 ± 6 mg
  Quadriceps: 313 ± 8 mg
  Retroperitoneal Fat: 334 ± 26 mg
  Seminal Vesicle: 218 ± 9 mg
  Testes L: 84 ± 3 mg
  Testes R: 85 ± 3 mg
  Total Central Fat: 625 ± 37 mg
  Triceps: 217 ± 6 mg
[3]; [8]
  Adrenals L: 5 ± 0 mg
  Adrenals R: 6 ± 2 mg
  Biceps: 67 ± 4 mg
  Brain: 404 ± 7 mg
  Combined Muscle: 840 ± 23 mg
  Epididymal Fat: 244 ± 20 mg
  Epididymis (L + R): 112 ± 4 mg
  Gastrocnemius: 241 ± 9 mg
  Heart: 131 ± 4 mg
  Kidneys L: 156 ± 6 mg
  Kidneys R: 162 ± 6 mg
  Lean body weight: 23.59 g
  Liver: 1141 ± 47 mg
  Lungs: 181 ± 5 mg
  Muscle:fat ratio: 1.28
  Peri-renal Fat: 72 ± 7 mg
  Quadriceps: 318 ± 10 mg
  Retroperitoneal Fat: 353 ± 30 mg
  Seminal Vesicle: 233 ± 12 mg
  Testes L: 85 ± 3 mg
  Testes R: 87 ± 3 mg
  Thymus: 53 ± 4 mg
  Total Central Fat: 669 ± 46 mg
  Triceps: 215 ± 8 mg
[3]; compound 2 exposure in utero, 20 weeks
  body composition of adult offspring: no effect
[3]; compound 2 to dams, with or without concurrent LPS exposure, up to 20 weeks
  growth trajectory of male and female offspring: not affected
